Reference: patent US9346839B2
Read-outs that look alike come from different tables or passages of the source.

How the values were obtained:
ABAD = ABAD (Homo sapiens (Human), UniProt Q99714); test: Inhibition of reduction of S-acetoacetyl-CoA (SAAC) by ABAD (ABAD enzymatic activity); assay type: biochemical
Procedure: Assay of ABAD Enzymatic Activity. […] Before the assay, all the assay components except SAAC were pre-incubated for 5 minutes, and the reaction started with the addition of SAAC into the reaction mix. The reaction was carried out for a total 6 minutes at room temperature under steady-state conditions, and the decrease of NADH absorbance at 340 nm was determined every 10 seconds. Kinetic data were analyzed by PRISM (Scitech, San Diego, Calif.) to determine IC50 values and Ki.

[1] = test system: mitochondrial permeability transition pore (mPTP); test: Mitochondria swelling assay in response to Ca2+; design: species or system mice; conditions: for calcium-mediated mitochondrial swelling: with calcium
Procedure: Isolation of Brain Mitochondria. Brain from mice without white matter was used for mitochondrial isolation. Brain was homogenized in 9 ml of ice-cold EB buffer (1 mmol EDTA, 1-6 mg/ml BSA) using a Dounce homogenizer until no particles could be seen. Homogenates were centrifuged at 1300×g for 5 minutes. Supernatant from this fraction was carefully laid on top of a 15% PERCOLL solution (10 ml) and then centrifuged at 16000 RPM for 10 minutes. The pellet was carefully mixed with 9 ml of mitochondrial buffer (4.098% D-mannitol, 2.56% sucrose, 0.034% K2HPO4, pH 7.3-7.4) and 200 μl of 1% digitonin. After 5 minutes incubation on ice, the mixture was centrifuged at 8000 RPM for 10 minutes. Mitochondrial pellet was washed once with mitochondrial buffer. Subsequently, the mitochondrial pellet was resuspended in 100 μl of mitochondrial buffer and was used for further experiments.
Mitochondria Swelling Assay. A proper amount of mitochondria was resuspended into 1 ml swelling assay buffer (150 mM KCl, 2 mM KH2PO4, 10 mM HEPES, pH 7.4) and energized by 1 mM glutamate and 1 mM malate. Calcium at varying concentrations was added into the assay buffer to trigger mitochondrial swelling. Mitochondrial permeability transition was determined by studying the rate of change in absorbance at 540 nm via a spectrophotometer.
Mitochondrial Swelling in Response to Ca^2+. Given that the Compounds 4, 8 and 15 could inhibit ABAD activity, it was determined whether these same compounds could decrease mitochondrial permeability transition pore (mPTP) formation.

[2] = Pharmacokinetic study, plasma and brain levels by LC-MS/MS; assay type: in vivo; conditions: both sexes, C57BL6, mouse, intravenous 10 mg/kg, mice; for AUC(0-t): read-out: AUC0-48
Procedure: Liquid Chromatography (LC) Method for Mass Spectrometry (MS) Detection. Chromatographic separation was on an ACE C18 column (Mac Mod Analytical, 3 μm, Ultra-Inert HPLC Column, 50×2.1 mm) protected by a matched ACE guard cartridge. Separation solvents were A: H2O (99%), methanol (1%), and formic acid (0.1%) and B: H2O (1%), methanol (99%), and formic acid (0.1%) delivered at a flow rate of 400 μl/minute. The hydrophobic character of the analytes allows a large injection (50 μl) to chromatofocus on a column at 5% B. After 0.2 minutes separation was with a linear gradient of 11% B/minute for 4 minutes. Column wash was to 80% B for 2 minutes and re-equilibration at 5% B for 1.5 minutes for a total run-time of 8 minutes. The first 2 minutes of chromatographic effluent was diverted to waste.
Mass Spectrometry Parameters. The mass spectrometer was run in positive ion mode using the electrospray ionization (ESI) source. The source block was 100° C. and desolvation gas temperature 300° C. Argon collision gas pressure on a line to the cell was 1E-3 mbar. Quadrupoles 1 and 3 were set to 0.9 amu FWHH and collision energy and cone voltage settings were optimized for each compound. The data were processed using MassLynx 4.1/QuanLynx and Graphpad Prism 5. Fragmentation patterns of compounds 4, 8, and 15, methyl (Z)-3-(((6-methoxybenzo[d]thiazol-2-yl)imino)methyl)benzoate, 4-(1-((6-methoxybenzo-[d]thiazol-2-yl)amino)ethyl)phenol, and (Z)-1-(4-fluorophenyl)-N-(6-methoxybenzo[d]thiazol-2-yl) methanimine were determined by infusing an aqueous/methanol solution introduce with a T fitting into 30% solvent B from the UPLC for source optimization. The most abundant transitions were chosen for all the three compounds.
Plasma Sample Preparation. Mouse plasma samples, 50 μl, were transferred to a 1.5 ml centrifuge tube and then 50 μl of IS (4 μg/ml) and 50 μl of calibration standard sample were vortexed for 30 seconds. Acetonitrile (0.1 ml) was added to precipitate the proteins. After being vortexed for 3 minutes, the sample was centrifuged for 10 minutes at 13000 rpm. Supernatant (50 μl) was diluted with 50 μl water and injected onto the column.
Brain Sample Preparation. Brain tissue (100 mg) was weighed and placed in a centrifuge tube. Methanol (100 μl) was added and the mixture was homogenized for 1 minute before adding 100 μl IS (6 μg/ml) to the homogenized mixture. The sample was then vortexed for 30 seconds before centrifuging for 10 minute at 13000 rpm. The supernatant liquid was diluted 50% with water and injected.
Application to Pharmacokinetic Study and Data Analysis. Using the validated LCMS/MS method, blood and brain levels of 4, 8, and 15 were measured in male and female C57BL6 mice (8-10 week-old, weighing approximately 25-30 grams). The mice were housed in a room with controlled temperature (23±3° C.) and moisture level (55±15% relative humidity) and exposed to a controlled 12 hour light/12 hour dark cycle. They were allowed to access to food and water ad libitum. Mice were fasted for 6 hours with free access to water prior to the pharmacokinetic study. To determine the time course of compounds 4, 8, and 15 action in the brain, the plasma pharmacokinetics and BBB penetration capability of the inhibitors were investigated. In these experiments, compounds 4, 8, and 15 were administered to mice by intravenous injection at a dosage of 10 mg/kg. Blood and brain samples were collected from mouse at each time point (2, 5, 10, 30, 60, 120, 240, 360, 720, 1440, and 2880 minutes), a total of 11 time points. For plasma measurements, blood (approximately 500-800 μl) was collected via cardiac-puncture into tubes containing sodium heparin anti-coagulant. Plasma was separated via centrifugation (4° C., 3500 rpm, 10 minutes) and stored in −80° C. freezer. For qualitative confirmations of these compounds in CSF, samples were collected at 2 time points (240 and 1440 min) from five animals at each time point. […]

[3] = Table 6, reduction of SAAC by ABAD, read-out: IC50
[4] = Table 6, reduction of SAAC by ABAD, read-out: Ki
[5] = Table 7, read-out: ABAD Enzymatic Activity IC50
[6] = Table 7, read-out: ABAD Enzymatic Activity Ki

ABAD, sequence (Q99714 whole entry): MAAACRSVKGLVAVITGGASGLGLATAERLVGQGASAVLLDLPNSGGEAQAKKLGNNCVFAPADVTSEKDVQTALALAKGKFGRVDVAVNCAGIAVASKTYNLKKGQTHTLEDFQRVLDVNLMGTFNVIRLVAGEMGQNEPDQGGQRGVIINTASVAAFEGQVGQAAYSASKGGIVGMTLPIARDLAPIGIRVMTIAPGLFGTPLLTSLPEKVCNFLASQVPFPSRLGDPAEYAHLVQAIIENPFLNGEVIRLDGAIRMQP

## COc1ccc2nc(N[C@@H](c3ccc(O)cc3)P(=O)(OC)OC)sc2c1 (racemic) [Compound 8, Dimethyl ((4-hydroxyphenyl)((6-methoxybenzo[d]thiazol-2-yl)amino)methyl)phosphonate]
ABAD; [3]
  IC50: 259 µM
ABAD; [4]
  Ki: 70.6 µM
ABAD; [5]
  IC50: 52.7 µM
ABAD; [6]
  Ki: 14.9 µM
ABAD; in words
  inhibitory effect on SAAC reduction by ABAD: most potent inhibitory effect
[1]
  calcium-mediated mitochondrial swelling: antagonized calcium-mediated mitochondrial swelling
  mitochondrial swelling without calcium: did not affect mitochondrial swelling without calcium
[2]; Brain
  AUC(0-inf): 7.1 ng·h/mL
  Cmax: 4.8 ng/mL
  half-life: 8.3 h
  AUC(0-t): 6.9 ng·h/mL
[2]; Plasma
  AUC(0-inf): 2870 ng·h/mL
  Cmax: 2130 ng/mL
  half-life: 5.5 h
  AUC(0-t): 2860 ng·h/mL

## COC(=O)c1cc([C@H](Nc2nc3ccc(OC)cc3s2)P(=O)(OC)OC)ccc1O [Compound 4, Methyl 5-((dimethoxyphosphoryl)((6-methoxybenzo[d]thiazol-2-yl)amino)methyl)-2-hydroxybenzoate]
ABAD; [3]
  IC50: 19.6 µM
ABAD; [4]
  Ki: 5.5 µM
ABAD; [5]
  IC50: 341 ± 68.7 µM
ABAD; [6]
  Ki: 96.6 ± 19.4 µM
ABAD; in words
  inhibitory effect on SAAC reduction by ABAD: modest inhibitory effect
[1]
  calcium-mediated mitochondrial swelling: antagonized calcium-mediated mitochondrial swelling
  mitochondrial swelling without calcium: did not affect mitochondrial swelling without calcium
[2]; Brain
  AUC(0-inf): 75.1 ng·h/mL
  Cmax: 50.7 ng/mL
  Tmax: 1.8 min
  half-life: 17.1 h
  AUC(0-t): 66.5 ng·h/mL
[2]; Plasma
  AUC(0-inf): 3030 ng·h/mL
  Cmax: 2370 ng/mL
  Tmax: 1.8 min
  half-life: 6.2 h
  AUC(0-t): 3030 ng·h/mL

## COc1ccc2nc(N[C@@H](c3ccc(F)cc3)P(=O)(OC)OC)sc2c1 [Compound 15, Dimethyl ((4-fluorophenyl)((6-methoxybenzo[d]thiazol-2-yl)amino)methyl)phosphonate]
ABAD; [5]
  IC50: 1260 ± 199 µM
ABAD; [6]
  Ki: 356 ± 56.1 µM
ABAD; at 10 μM
  inhibition of SAAC reduction by ABAD: did not inhibit
ABAD; at 100 or 400 μM
  inhibitory effect on SAAC reduction by ABAD: slight inhibitory effect
[1]
  calcium-mediated mitochondrial swelling: antagonized calcium-mediated mitochondrial swelling
  mitochondrial swelling without calcium: did not affect mitochondrial swelling without calcium
[2]; Brain
  AUC(0-inf): 65.4 ng·h/mL
  Cmax: 44.3 ng/mL
  Tmax: 1.8 min
  half-life: 11.4 h
  AUC(0-t): 64 ng·h/mL
[2]; Plasma
  AUC(0-inf): 2990 ng·h/mL
  Cmax: 1980 ng/mL
  Tmax: 1.8 min
  half-life: 6.1 h
  AUC(0-t): 2980 ng·h/mL
